The source of these data is patent publication US11008290B2, “Halogenated quinoline derivatives as antimicrobial agents” (University of Florida Research Foundation, Incorporated, priority 2015, dated 2021).

For series [1], the system named is methicillin-resistant Staphylococcus aureus-2 (MRSA-2; clinical isolate). Nature of the series: Minimum inhibitory concentration (MIC) susceptibility assay, broth microdilution. The format is cell-based. To be noted: Staphylococcus, MRSA; Table 3; at least three independent experiments; read-out: MRSA-2 MIC. How it is done: (§1) The minimum inhibitory concentration (MIC) for each compound was determined by the broth microdilution method as recommended by the Clinical and Laboratory Standards Institute (CLSI). In a 96-well plate, eleven two-fold serial dilutions of each compound were made in a final volume of 100 μL Luria Broth. Each well was inoculated with ˜10^5 bacterial cells at the initial time of incubation, prepared from a fresh log phase culture (OD600 of 0.5 to 1.0 depending on bacterial strain). […] The concentration range tested for each compound during this study was 0.10 to 100 μM. DMSO served as the vehicle and negative control in each microdilution MIC assay. DMSO was serially diluted with a top concentration of 1% v/v. Bacterial strains used: methicillin-resistant Staphylococcus aureus-2 (MRSA-2; clinical isolate from Shands Hospital in Gainesville, Fla.), methicillin-resistant Staphylococcus epidermidis (MRSE; ATCC 35984), vancomycin-resistant Enterococcus faecium (VRE, ATCC 700221).

Series [2] has as its system methicillin-resistant Staphylococcus epidermidis (MRSE; ATCC 35984). Described as above. The series is classed as cell-based. To be noted: Staphylococcus epidermidis; Table 3; read-out: MRSE MIC. How it is done:
as §1

Series [3] deals with vancomycin-resistant Enterococcus faecium (VRE, ATCC 700221). The description is as above. The series is classed as cell-based. The note with it: Table 3; read-out: VRE MIC. How it is done: as §1
For a further series, the system named is MRSA BAA-1707. Nature of the series: Calgary Biofilm Device (CBD) MBC/MBEC determination. The series is classed as cell-based, Staphylococcus aureus. The note with it: for MBC: Staphylococcus aureus, Table 4, planktonic killing, CBD, first value of cell, read-out: MRSA BAA-1707 MBC. How it is done:
(§2) Biofilm eradication experiments were performed using the Calgary Biofilm Device to determine MBC/MBEC values for various compounds of interest (Innovotech, product code: 19111). The Calgary device (96-well plate with lid containing 96 total pegs to establish biofilms; 1 peg/well) was inoculated with 125 μL of a mid-log phase culture diluted 1,000-fold in tryptic soy broth with 0.5% glucose (TSBG) to establish bacterial biofilms after incubation at 37° C. for 24 hours. The lid of the Calgary device was then removed, washed and transferred to another 96-well plate containing 2-fold serial dilutions of the test compounds (the “challenge plate”). The total volume of media with compound in each well in the challenge plate was 150 μL. The Calgary device was then incubated at 37° C. for 24 hours. The lid was then removed from the challenge plate and MBC/MBEC values were determined using different final assays. […] The MBC values were determined as the concentration giving a lack of visible bacterial growth (e.g., turbidity). For determination of MBEC values, the Calgary device lid (with attached pegs/treated biofilms) was transferred to a new 96-well plate containing 150 μL of fresh TSBG media in each well and incubated for 24 hours at 37° C. to allow viable biofilms to grow and disperse resulting in turbidity after the incubation period. […] In select experiments, treated pegs from the Calgary device were removed from lead biofilm eradicators after final incubation, sonicated for 30 minutes in PBS and plated out to determine biofilm cell killing (e.g., colony forming unit per milliliter, CFU/mL).

The subject of series [4] is MRSA-2 planktonic cells and biofilms. Described as above. The series is classed as cell-based, Staphylococcus aureus. The note with it: Staphylococcus aureus, MRSA, Table 3; planktonic killing, CBD; first value of MBC/MBEC cell; read-out: MRSA-2 MBC. How it is done: as §2
Series [5] relates to MRSE (ATCC 35984) planktonic cells and biofilms. The series is described as above. To be noted: for MBC: Staphylococcus epidermidis, Table 3, planktonic killing, CBD, first value of cell, read-out: MRSE MBC. The format is cell-based, Staphylococcus epidermidis. How it is done:
as §2

In series [6] the test system is VRE (ATCC 700221) planktonic cells and biofilms. The description is as above. The note with it: Enterococcus; Table 3; planktonic killing, CBD; first value of cell; footnote c = lowest concentration tested; read-out: VRE MBC. The format is cell-based, Enterococcus faecium. How it is done: as §2
The next series relates to human red blood cells. Nature of the series: Hemolysis assay. The series is classed as cell-based. To be noted: human, 1 h, pH 7.2. How it is done:
Freshly drawn human red blood cells (hRBC with ethylenediaminetetraacetic acid (EDTA) as an anticoagulant) were washed with Tris-buffered saline (0.01M Tris-base, 0.155M sodium chloride (NaCl), pH 7.2) and centrifuged for 5 minutes at 3500 rpm. The washing was repeated three times with the buffer. In 96-well plate, the test compounds were added to the buffer. […] The plate was then incubated for 1 hour at 37° C. After incubation, the plate is centrifuged for 5 minutes at 3500 rpm. Then 80 μL of the supernatant were transferred to another 96-well plate and the Optical Density (OD) was read at 405 nm. […] The percent of hemolysis was calculated as (OD405 of the compound-OD405 DMSO)/(OD405 Triton X-OD405 buffer).

SMILES strings stand for the structures. Values after ≈ are worked out from the molar mass of the structure shown. A value given as a limit tells only on which side of the number the result lay.

`O=Cc1ccc2c(Br)cc(Br)c(O)c2n1` [Compound 2, 5,7-dibromo-8-hydroxyquinoline-2-carbaldehyde] returned a melting point of 154 to 156 °C.
Same read-out and setting: to `N#Cc1ccc2c(Br)cc(Br)c(O)c2n1` [HQ-8, 5,7-dibromo-8-hydroxyquinoline-2-carbonitrile] belongs 172 to 174 °C; to `OCc1ccc2c(Br)cc(Br)c(O)c2n1` [HQ-11, 5,7-dibromo-2-(hydroxymethyl)quinolin-8-ol], 131 to 133 °C; to `CC(O)c1ccc2c(Br)cc(Br)c(O)c2n1` (centres unmarked) [HQ-13, 5,7-dibromo-2-(1-hydroxyethyl)-8-hydroxyquinoline], 114 to 116 °C.
For `N=C(N)c1ccc2c(Br)cc(Br)c(O)c2n1` [HQ-14, 5,7-dibromo-8-hydroxyquinoline-2-carboximidamide], the melting point fell in the range of 172 to 174 °C.
`Oc1c(Br)cc(Br)c2ccc(CNc3ccc(F)cc3)nc12` [RA-HQ-12]: the minimal inhibitory concentration (MIC) in series [1] amounted to 0.39 µM (≈ 0.166 µg/mL); in series [2], 0.39 µM (≈ 0.166 µg/mL); in [3], 0.78 µM (≈ 0.332 µg/mL). Further, the “fold more potent than HQ-1 (MBEC)” value in the series on MRSA BAA-1707 (MRSA BAA-1707) turned out to be 6 fold. For the same compound, the MBC in the series with MRSA BAA-1707 came out at 15.6 µM (≈ 6.65 µg/mL); in series [4] it was 31.3 µM (≈ 13.3 µg/mL); in series [5], 3.9 µM (≈ 1.66 µg/mL); in series [6], 1 µM (≈ 0.426 µg/mL). In [5] (MRSE 35984, CBD), the “MBEC:MBC ratio” value is listed as ~1. In the series with human red blood cells, the “% Haemolysis at 200 μM” value is ≤1%.
Turning to `Oc1c(Br)cc(Br)c2ccc(CNc3ccccc3Br)nc12` [RA-HQ-16], the minimum inhibitory concentration (MIC) turned out to be 1.56 µM (≈ 0.76 µg/mL) in series [1], 0.2 µM (≈ 0.0974 µg/mL) in [2] and 0.78 µM (≈ 0.38 µg/mL) in series [3]. In addition, the MBC in the series with MRSA BAA-1707 amounted to 93.8 µM (≈ 45.7 µg/mL); in series [4], 188 µM (≈ 91.6 µg/mL); in series [5], 46.9 µM (≈ 22.8 µg/mL); in series [6], 7.8 µM (≈ 3.8 µg/mL). Besides, in the series on human red blood cells, the “% Haemolysis at 200 μM” value is ≤1%.
